Measurements published in ChEMBL document CHEMBL1143251 (J Med Chem, 2008).
Active and inactive are the calls of the source. No cut-off for these calls is given here.

Columns and labels:
[1] = Displacement of [3H]DTG from opioid sigma2 receptor in rat brain homogenate; assay type: tissue-based
Rattus norvegicus = species: Rattus norvegicus; experiment: Ratio of Ki for rat sigma1 opioid receptor to Ki for rat sigma2 opioid receptor
[2] = Displacement of [3H]bremazocine from opioid receptor in rat brain homogenate; assay type: tissue-based
[3] = Displacement of [3H]ketanserin from 5HT2 receptor in rat brain homogenate; assay type: tissue-based
[4] = molecular target: Sodium-dependent serotonin transporter (Rattus norvegicus, UniProt P31652); experiment: Displacement of [3H]paroxetine from serotonin transporter in rat brain homogenate; assay type: tissue-based
Sodium-dependent serotonin transporter, sequence (P31652 whole entry): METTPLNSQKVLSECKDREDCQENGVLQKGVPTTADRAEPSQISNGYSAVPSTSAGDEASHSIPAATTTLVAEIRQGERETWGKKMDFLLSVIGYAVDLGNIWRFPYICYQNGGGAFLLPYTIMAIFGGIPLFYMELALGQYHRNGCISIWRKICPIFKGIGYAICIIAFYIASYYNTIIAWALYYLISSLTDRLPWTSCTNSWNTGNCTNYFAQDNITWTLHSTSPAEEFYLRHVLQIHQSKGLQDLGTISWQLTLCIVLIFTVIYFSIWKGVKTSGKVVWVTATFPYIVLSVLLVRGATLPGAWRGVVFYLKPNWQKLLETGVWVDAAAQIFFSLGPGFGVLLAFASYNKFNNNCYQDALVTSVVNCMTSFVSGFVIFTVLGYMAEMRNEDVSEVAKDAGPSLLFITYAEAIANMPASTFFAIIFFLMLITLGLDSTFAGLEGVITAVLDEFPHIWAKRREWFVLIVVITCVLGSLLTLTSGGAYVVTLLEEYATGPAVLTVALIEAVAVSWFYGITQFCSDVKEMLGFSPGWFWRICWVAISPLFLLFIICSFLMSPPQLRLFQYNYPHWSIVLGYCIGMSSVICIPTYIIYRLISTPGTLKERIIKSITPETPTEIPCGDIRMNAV

[5] = molecular target: Norepinephrine transporter (Rattus norvegicus, UniProt Q9WTR4); experiment: Displacement of [3H]nisoxetine from norepinephrine transporter in rat brain homogenate; assay type: tissue-based
Norepinephrine transporter, sequence (Q9WTR4 whole entry): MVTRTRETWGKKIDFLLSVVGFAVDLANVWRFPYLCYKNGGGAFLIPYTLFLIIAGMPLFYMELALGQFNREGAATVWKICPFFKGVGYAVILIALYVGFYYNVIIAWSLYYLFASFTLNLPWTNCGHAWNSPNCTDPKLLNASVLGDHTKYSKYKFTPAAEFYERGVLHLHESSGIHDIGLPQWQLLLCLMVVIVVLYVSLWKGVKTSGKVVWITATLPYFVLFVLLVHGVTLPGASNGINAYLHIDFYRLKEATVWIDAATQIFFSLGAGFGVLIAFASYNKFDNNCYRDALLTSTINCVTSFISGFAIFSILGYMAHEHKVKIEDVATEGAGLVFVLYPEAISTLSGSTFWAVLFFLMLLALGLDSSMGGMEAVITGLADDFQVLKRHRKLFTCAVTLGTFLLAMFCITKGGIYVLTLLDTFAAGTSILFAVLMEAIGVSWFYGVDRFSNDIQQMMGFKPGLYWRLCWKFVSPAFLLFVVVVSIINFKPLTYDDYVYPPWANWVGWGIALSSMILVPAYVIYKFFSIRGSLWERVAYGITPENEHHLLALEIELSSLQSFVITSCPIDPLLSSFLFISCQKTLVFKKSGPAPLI

[6] = molecular target: Sodium-dependent dopamine transporter (Rattus norvegicus, UniProt P23977); experiment: Displacement of [3H]WIN-35428 from dopamine transporter in rat brain homogenate; assay type: tissue-based
Sodium-dependent dopamine transporter, sequence (P23977 whole entry): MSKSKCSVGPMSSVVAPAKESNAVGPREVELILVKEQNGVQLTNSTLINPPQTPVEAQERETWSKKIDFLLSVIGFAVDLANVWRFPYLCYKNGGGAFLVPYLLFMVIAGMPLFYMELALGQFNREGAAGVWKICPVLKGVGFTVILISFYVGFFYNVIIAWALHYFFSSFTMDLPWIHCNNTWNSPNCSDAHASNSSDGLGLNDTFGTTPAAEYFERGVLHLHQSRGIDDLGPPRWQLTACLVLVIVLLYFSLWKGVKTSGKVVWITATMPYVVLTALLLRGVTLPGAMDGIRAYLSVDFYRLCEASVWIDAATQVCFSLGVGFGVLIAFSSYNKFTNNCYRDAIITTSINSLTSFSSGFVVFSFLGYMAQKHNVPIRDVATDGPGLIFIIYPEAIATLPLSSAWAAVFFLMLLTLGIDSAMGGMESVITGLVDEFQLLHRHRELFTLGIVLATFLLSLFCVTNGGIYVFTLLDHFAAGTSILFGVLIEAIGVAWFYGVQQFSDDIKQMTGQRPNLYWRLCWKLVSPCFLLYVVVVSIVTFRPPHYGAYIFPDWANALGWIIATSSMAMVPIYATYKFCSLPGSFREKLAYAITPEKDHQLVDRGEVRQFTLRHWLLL

Glutamate NMDA receptor = experiment: Displacement of [3H]TCP from NMDA receptor in rat brain homogenate; assay type: tissue-based
[7] = molecular target: Sigma non-opioid intracellular receptor 1 (Rattus norvegicus, UniProt Q9R0C9); experiment: Displacement of [3H](+)-pentazocine from opioid sigma1 receptor in rat brain homogenate; assay type: tissue-based
Sigma non-opioid intracellular receptor 1, sequence (Q9R0C9 whole entry): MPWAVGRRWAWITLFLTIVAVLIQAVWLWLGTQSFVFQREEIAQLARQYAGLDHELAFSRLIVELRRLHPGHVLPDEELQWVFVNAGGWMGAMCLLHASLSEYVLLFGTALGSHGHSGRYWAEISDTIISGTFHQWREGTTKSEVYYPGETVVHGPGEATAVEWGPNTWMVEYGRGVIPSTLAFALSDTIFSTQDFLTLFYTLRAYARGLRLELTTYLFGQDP

Mus musculus = experiment: Inhibition of cocaine-induced convulsions in ip dosed Swiss Webster mouse after 15 mins; assay type: functional, organism-based

SMILES | Ki [1] [nM] | Ratio Ki (Rattus norvegicus) | further results
O=c1oc2ccccc2n1CCCCCCN1CCN(C2CCCCC2)CC1 | 3.06 | 1.5 | 
S=c1oc2ccccc2n1CCCCN1CCN(C2CCCCC2)CC1 | 0.77 |  | 
O=c1sc2ccccc2n1CCCN1CCN(C2CCCCC2)CC1 | 3.05 | 1.84 | 
c1ccc2oc(SCCCCN3CCN(C4CCCCC4)CC3)nc2c1 | 3.77 |  | 
S=c1sc2ccccc2n1CCCCN1CCN(C2CCCCC2)CC1 | 0.55 | 2.33 | Ki [2]: > 10 µM; Ki [3]: 1330 nM; Ki [4]: 1400 nM; Ki [5]: > 10 µM; Ki [6]: 1170 nM; Ki (Glutamate NMDA receptor): > 10 µM
O=c1sc2ccccc2n1CCCCCCN1CCN(C2CCCCC2)CC1 | 1.49 | 4.4 | 
O=c1sc2ccccc2n1CCCCN1CCN(C2CCCCC2)CC1 | 0.39 |  | 
O=c1oc2ccccc2n1CCCN1CCN(C2CCCCC2)CC1 | 8.74 |  | 
O=c1oc2ccccc2n1CCN1CCN(C2CCCCC2)CC1 | 5.43 |  | 
COc1cccc2c1CCCC2CCCN1CCN(C2CCCCC2)CC1 (configuration not stated) | 1.11 | 1.33 | Ki [7]: 1.48 nM
CCCc1ccc2c(c1)sc(=O)n2CCN1CCCCCC1 | 831 | 0.00014 | Activity (Mus musculus): Active; Ki [7]: 0.12 nM
O=c1oc2ccccc2n1CCCCN1CCN(C2CCCCC2)CC1 | 1.83 | 6.15 | 
O=c1oc2ccccc2n1CCCCCN1CCN(C2CCCCC2)CC1 | 5.89 | 1.79 | 
O=c1sc2ccccc2n1CCCCCN1CCN(C2CCCCC2)CC1 | 2.44 |  | 
O=c1sc2ccccc2n1CCN1CCN(C2CCCCC2)CC1 | 2.25 |  | 
